Experimental data: patent US5773422A, “Avermectin formulation” (priority 1996, dated 1998)

Experiments:
[1] = cited from earlier work
[2] = solubility of avermectins/ivermectin in N-methylpyrrolidone and 2-pyrrolidone formulations; water tolerance (clear solution becomes milky or cloudy as excess water is added); format: physicochemical
Procedure: Both N-methylpyrrolidone and 2-pyrrolidone have been approved as a safe solvent for injection, but only for oxytetracycline; which is chemically unlike ivermectin. […] Ivermectin can be present in the formulation from 0.1% to 40% (w/v). N-methylpyrrolidone (also known as M-pyrole) can be present from 5% to essentially 100% (v/v) of the formulation. The specific gravity of N-methylpyrrolidone is 1.027 at 25° C. relative to water at 4° C. Additional compounds can be included as desired, e.g. propylene glycol up to 95% by volume, water up to 90% by volume and Clorsulon (an antiparasitic agent frequently co-administered with ivermectin) up to 40% by weight. The formulation can contain water up to amounts which limit avermectin solubility. The maximum amount of water which can be included depends upon the amount of avermectin and the presence of co-solvents such as propylene glycol, and presence of detergent, as illustrated in the Examples. The amount of water which can be present is limited only by avermectin solubility. The presence of too much water can be readily detected because the clear solution becomes milky or cloudy as excess water is added. Where N-methylpyrrolidone is the sole solvent, up to 30% by volume of water can be included in a formulation containing 1% (w/v) ivermectin. If less ivermectin is present, the amount of water can be increased somewhat. If 10% (v/v) propylene glycol is a co-solvent with 20% (w/v) N-methylpyrrolidone, 0.5% ivermectin remains soluble in the presence of water up to about 70% by volume. Compositions containing 2-pyrrolidone completely or partially substituted for N-methylpyrrolidone in the exemplified formulations are equivalent in their solubility properties. As noted above, compositions containing N-methylpyrrolidone are preferred.

Rat = details: cited from earlier work
[3] = pain and tissue reaction at the injection site; format: in vivo; details: compared with 2-pyrrolidone
[4] = cited from earlier work; remark: listed apart in the source

Row | Compound | solubility in 1-butanol ([1]; 1-butanol) [mg/mL] | solubility in 2-propanol ([1]; 2-propanol) [mg/mL] | solubility in acetone ([1]; acetone) [mg/mL] | solubility in methylethylketone ([1]; methylethylketone) [mg/mL] | solubility in water ([1]; water, room temperature) | water in the presence of which ivermectin remains soluble ([2]; 0.5% ivermectin, 10% (v/v) propylene glycol co-solvent with 20% (w/v) N-methylpyrrolidone) | solubility in 2-pyrrolidone ([2]; 2-pyrrolidone, to permit formulation of therapeutic compositions) | amount of water which can be included (limited by avermectin solubility) ([2]; N-methylpyrrolidone sole solvent, 1% (w/v) ivermectin) | solubility in N-methylpyrrolidone ([2]; N-methylpyrrolidone, to permit formulation of therapeutic compositions) | LD50 (Rat; Rat, oral) [mg/kg] | oral toxicity (Rat) | pain at the injection site [3] | tissue reaction [3] | time in which most of the compound is eliminated by the kidneys [4] [h]
1 | 22,23-dihydroavermectin B1 [ivermectin] | 330 | 70 | 81 | 320 | about 0.005 mg per ml | up to 70 % by volume | sufficiently soluble | up to 30 % by volume | sufficiently soluble |  |  |  |  | 
2 | CN1CCCC1=O [N-methylpyrrolidone] |  |  |  |  |  |  |  |  |  | 4200 | very low order of oral toxicity | less pain at the injection site | less tissue reaction | ≤ 24
